The values below come from paper PMC11940194, “Synthesis, Antiproliferative Activity, and ADME Profiling of Novel Racemic and Optically Pure Aryl-Substituted Purines and Purine Bioisosteres” (Biomolecules, 2025).

Format in all cases: cell-based, human
Assay [1] concerns pancreatic ductal adenocarcinoma (CFPAC-1) cells. Briefly: Antiproliferative MTT assay, CFPAC-1. Conditions: for IC50: Homo sapiens, CFPAC-1, 72 h, 72 h incubation, MTT, mean ± SD; for SI (CFPAC-1): SI = [IC50 HFF]/[IC50 CFPAC-1]. As to the method:
(§1) The human ATCC tumor cell lines breast adenocarcinoma (MCF7), colorectal carcinoma (HT-29), pancreatic ductal adenocarcinoma (CFPAC-1), hepatocellular carcinoma (HepG2), and normal skin fibroblasts (HFF) derived from ATCC (American Type Culture Collection) were cultured in Dulbecco’s Modified Eagle Medium (DMEM) or Minimum Essential Medium (MEM) supplemented with 10% fetal bovine serum (FBS), 2 mM L-glutamine, 100 U/mL penicillin, and 100 µg/mL streptomycin (Lonza, Basel, Switzerland) in a humidified atmosphere with 5% CO2 at 37 °C. For the experiment, carcinoma cell lines and normal human cell lines were seeded in 96-well microtiter plates at a density of 3000 cells per well and 5000 cells per well, respectively, depending on the doubling time of the specific cell line. The test substances were then added at fivefold, tenfold dilutions (0.01 to 100 µM), freshly prepared in the growth medium on the day of testing, and incubated for a further 72 h. After 72 h of incubation, the growth rate of the cells was determined using the MTT assay according to the manufacturer’s guidelines. […] The IC50 values were calculated from the dose–response curves using linear regression analysis. The experiment was performed in tetraplicates in two individual experiments.
(§2) Newly synthesized compounds were evaluated for their cytotoxic activity in vitro against four human cancer cell lines, including human breast adenocarcinoma (MCF-7), ductal pancreatic adenocarcinoma (CFPAC-1), colorectal carcinoma (HT-29), and hepatocellular carcinoma (HepG2), as well as on non-cancerous skin fibroblasts (HFF-1), to check for non-specific toxicity. Furthermore, 5-Fluorouracil (5-FU) was used as a reference drug. The results are expressed as 50% inhibitory concentration (IC50) values and are listed in Table 2, Table 3, Table 4 and Table 5.
In general terms: Formazan colour is commonly taken as a measure of viable cells.

The test system of assay [2] is hepatocellular carcinoma (HepG2) cells. The experiment in a line: Antiproliferative MTT assay, HepG2. The settings on record: for IC50: Homo sapiens, HepG2, 72 h, 72 h incubation, MTT, mean ± SD; for SI (HepG2): SI = [IC50 HFF]/[IC50 HepG2]. Here is the method: as §1, §2
The test system of assay [3] is breast adenocarcinoma (MCF7) cells. Briefly: Antiproliferative MTT assay, MCF-7. Conditions: for IC50: Homo sapiens, MCF7, 72 h incubation, MTT, mean ± SD; for SI (MCF-7): SI = [IC50 HFF]/[IC50 MCF-7]. As to the method: as §1, §2
In assay [4] the test system is normal skin fibroblasts (HFF-1). The experiment in a line: Cytotoxicity MTT assay, normal skin fibroblasts. Conditions: Homo sapiens, HFF-1, 72 h, 72 h incubation, mean ± SD. Here is the method:
as §1, §2

In assay [5] the test system is colorectal carcinoma (HT-29) cells. Briefly: Antiproliferative MTT assay, HT-29. The settings on record: for IC50: Homo sapiens, HT-29, 72 h, 72 h incubation, MTT, mean ± SD; for SI (HT-29): SI = [IC50 HFF]/[IC50 HT-29]. Here is the method: as §1, §2

One may read the IC50 as the point on the concentration scale where inhibition reaches its midpoint. A lower IC50 goes with higher potency. Turning to `OC(Cn1cc(Cn2cnc3c(Cl)ncnc32)nn1)c1ccc(Cl)cc1` (stereo not drawn) [Compound 38b, 6-Chloro-9-((1-(2-hydroxy-2-(4-chlorophenyl)ethyl)-1H-1,2,3-triazol-4-yl)methyl)-9H-purine], the IC50 in assay [1] is 36 ± 8.2 µM; in assay [2], 49 ± 13.3 µM; in assay [3] it was 51 ± 8.9 µM; in assay [4] it was 31 ± 5.3 µM; in assay [5], 56 ± 2.8 µM. Besides, in assay [2], the “SI (HepG2)” value was 0.6. For the same molecule, the “SI (HT-29)” value in assay [5] is 0.6.

With `OCC(c1ccccc1)n1cc(Cn2ccc3c(Cl)ncnc32)nn1` (stereo not drawn) [Compound 41a, 4-Chloro-7-((1-(2-hydroxy-1-phenylethyl)-1H-1,2,3-triazol-4-yl)methyl)-7H-pyrrolo[2,3-d]pyrimidine], the IC50 in assay [1] is 33 ± 4.5 µM; in assay [2], 38 ± 1.8 µM; in assay [3], 39 ± 7.1 µM; in assay [4] it was 62 ± 23.3 µM; in assay [5] it was 33 ± 3.2 µM. In addition, the “SI (CFPAC-1)” value in assay [1] worked out at 1.9. In assay [3], the “SI (MCF-7)” value was 1.6.

As to `OC(Cn1cc(Cn2ccc3c(Cl)ncnc32)nn1)c1ccccc1` (stereo not drawn) [Compound 41b, 4-Chloro-7-((1-(2-hydroxy-2-phenylethyl)-1H-1,2,3-triazol-4-yl)methyl)-7H-pyrrolo[2,3-d]pyrimidine], the IC50 was 49 ± 11.3 µM in assay [1]; 50 ± 10.2 µM in assay [2]; 44 ± 17.4 µM in assay [3]; 44 ± 14.1 µM in assay [4]; 50 ± 1.3 µM in assay [5]. The “SI (CFPAC-1)” value in assay [1] stood at 0.9. Besides, the “SI (MCF-7)” value in assay [3] amounted to 1.0.

On to `OCC(c1ccc(F)cc1)n1cc(Cn2ccc3c(Cl)ncnc32)nn1` (stereo not drawn) [Compound 42a, 4-Chloro-7-((1-(2-hydroxy-1-(4-fluorophenyl)ethyl)-1H-1,2,3-triazol-4-yl)methyl)-7H-pyrrolo[2,3-d]pyrimidine], for which the IC50 in assay [1] was 36 ± 2.2 µM; in assay [2] it was 47 ± 13.5 µM; in assay [3], 39 ± 16.9 µM; in assay [4], 51 ± 16.5 µM; in assay [5], 39 ± 1.9 µM. Moreover, the “SI (CFPAC-1)” value in assay [1] stood at 1.4. Besides, in assay [3], the “SI (MCF-7)” value turned out to be 1.3.

Consider `OC(Cn1cc(Cn2ccc3c(Cl)ncnc32)nn1)c1ccc(F)cc1` (stereo not drawn) [Compound 42b, 4-Chloro-7-((1-(2-hydroxy-2-(4-fluorophenyl)ethyl)-1H-1,2,3-triazol-4-yl)methyl)-7H-pyrrolo[2,3-d]pyrimidine], for which the IC50 in assay [1] was found to be 34 ± 3.2 µM; in assay [2], 38 ± 11 µM; in assay [3], 45 ± 5.7 µM; in assay [4], 51 ± 3.6 µM; in assay [5], 49 ± 14.6 µM. In addition, the “SI (CFPAC-1)” value in assay [1] is 1.5. For the same molecule, the “SI (MCF-7)” value in assay [3] stood at 1.1.

As for `OCC(c1ccc(Cl)cc1)n1cc(Cn2ccc3c(Cl)ncnc32)nn1` (stereo not drawn) [Compound 43a, 4-Chloro-7-((1-(2-hydroxy-1-(4-chlorophenyl)ethyl)-1H-1,2,3-triazol-4-yl)methyl)-7H-pyrrolo[2,3-d]pyrimidine], the “SI (CFPAC-1)” value in assay [1] is 5.1. Besides, the IC50 in assay [2] is 33 ± 4.2 µM; in assay [3], 24 ± 8.8 µM; in assay [4], 41 ± 16.3 µM; in assay [5], 33 ± 6.1 µM. Moreover, the “SI (MCF-7)” value in assay [3] stood at 1.7.

Take `OC(Cn1cc(Cn2ccc3c(Cl)ncnc32)nn1)c1ccc(Cl)cc1` (stereo not drawn) [Compound 43b, 4-Chloro-7-((1-(2-hydroxy-2-(4-chlorophenyl)ethyl)-1H-1,2,3-triazol-4-yl)methyl)-7H-pyrrolo[2,3-d]pyrimidine]: the IC50 came to 48 ± 4.9 µM in assay [1]; 46 ± 2.2 µM in assay [2]; 39 ± 10.1 µM in assay [3]; 32 ± 14.1 µM in assay [4]; 28 ± 3.8 µM in assay [5]. The “SI (CFPAC-1)” value in assay [1] amounted to 0.7. Further, the “SI (MCF-7)” value in assay [3] was 0.8.

`OCC(c1ccc(F)cc1)n1cc(Cn2cnc3c(Cl)nccc32)nn1` (stereo not drawn) [Compound 47a, 4-Chloro-1-((1-(2-hydroxy-1-(4-fluorophenyl)ethyl)-1H-1,2,3-triazol-4-yl)methyl)-1H-imidazo[4,5-c]pyridine]: the IC50 is 51 ± 6.5 µM in assay [1]; above 100 µM in assay [2]; 63 ± 8.4 µM in assay [3]; 75 ± 14.2 µM in assay [4]; above 100 µM in assay [5].

Consider `OC(Cn1cc(Cn2cnc3c(Cl)nccc32)nn1)c1ccc(F)cc1` (stereo not drawn) [Compound 47b, 4-Chloro-1-((1-(2-hydroxy-2-(4-fluorophenyl)ethyl)-1H-1,2,3-triazol-4-yl)methyl)-1H-imidazo[4,5-c]pyridine], for which the IC50 in assay [1] was found to be 18 ± 0.8 µM; in assay [2], 55 ± 8.8 µM; in assay [3], 21 ± 2.6 µM; in assay [4], 18 ± 2.9 µM; in assay [5], 65 ± 12.6 µM. The “SI (HepG2)” value in assay [2] was determined as 0.3.

As for `OCC(c1ccc(Cl)cc1)n1cc(Cn2cnc3c(Cl)nccc32)nn1` (stereo not drawn) [Compound 48a, 4-Chloro-1-((1-(2-hydroxy-1-(4-chlorophenyl)ethyl)-1H-1,2,3-triazol-4-yl)methyl)-1H-imidazo[4,5-c]pyridine], the IC50 was above 100 µM in assay [1]; above 100 µM in assay [2]; 96 ± 1.8 µM in assay [3]; above 100 µM in assay [4]; above 100 µM in assay [5].

`OC(Cn1cc(Cn2cnc3c(Cl)nccc32)nn1)c1ccc(Cl)cc1` (stereo not drawn) [Compound 48b, 4-Chloro-1-((1-(2-hydroxy-2-(4-chlorophenyl)ethyl)-1H-1,2,3-triazol-4-yl)methyl)-1H-imidazo[4,5-c]pyridine]: the IC50 in assay [1], in assay [2], in assay [3], in assay [4] and in assay [5] was above 100 µM in each case.

`O[C@@H](Cn1cc(Cn2cnc3c(Cl)ncnc32)nn1)c1ccccc1` [Compound (R)-36b, (R)-6-Chloro-9-((1-(2-hydroxy-2-phenylethyl)-1H-1,2,3-triazol-4-yl)methyl)-9H-purine]: the IC50 was 66 ± 3.2 µM in assay [1]; 57 ± 9.7 µM in assay [2]; 61 ± 3.7 µM in assay [3]; above 100 µM in assay [4]; 86 ± 11.6 µM in assay [5]. Moreover, the “SI (HepG2)” value in assay [2] is listed as above 1.8. The “SI (HT-29)” value in assay [5] is reported as above 1.2.

Turning to `O[C@@H](Cn1cc(Cn2cnc3c(Cl)ncnc32)nn1)c1ccc(F)cc1` [Compound (R)-37b, (R)-6-Chloro-9-((1-(2-hydroxy-2-(4-fluorophenyl)ethyl)-1H-1,2,3-triazol-4-yl)methyl)-9H-purine], the IC50 in assay [1] is above 100 µM; in assay [2], 64 ± 3.1 µM; in assay [3], above 100 µM; in assay [4] it was 35 ± 5.5 µM; in assay [5] it was above 100 µM. In addition, the “SI (HepG2)” value in assay [2] turned out to be 0.6.

In the case of `O[C@@H](Cn1cc(Cn2cnc3c(Cl)ncnc32)nn1)c1ccc(Cl)cc1` [Compound (R)-38b], the IC50 in assay [1] stood at 60 ± 10.3 µM; in assay [2], 39 ± 10.5 µM; in assay [3] it was 64 ± 4.8 µM; in assay [4], 31 ± 13.4 µM; in assay [5], 51 ± 17.8 µM. Besides, the “SI (HepG2)” value in assay [2] came out at 0.8. The “SI (HT-29)” value in assay [5] amounted to 0.6.

With `O[C@@H](Cn1cc(Cn2ccc3c(Cl)ncnc32)nn1)c1ccccc1` [Compound (R)-41b, (R)-4-Chloro-7-((1-(2-hydroxy-2-phenylethyl)-1H-1,2,3-triazol-4-yl)methyl)-7H-pyrrolo[2,3-d]pyrimidine], the IC50 in assay [1] came to 58 ± 12.1 µM; in assay [2], 52 ± 2.7 µM; in assay [3], 46 ± 2.7 µM; in assay [4], 23 ± 5.8 µM; in assay [5], 46 ± 2.3 µM. The “SI (CFPAC-1)” value in assay [1] was determined as 0.4. In assay [3], the “SI (MCF-7)” value came out at 0.5.
